In patent US10881709B2, “Immune system modulators and compositions” (Canimguide Therapeutics AB, priority 2015, dated 2021):
Peptide text beside a SMILES is read from it.

What was measured:
[1] = Toxicological aspects of P28R in dogs (systemic side effects); format: in vivo, dog; settings: 21 dogs: 4 with 200 nM in 1 mL subcutaneously, 17 with 40 nM in 200 microliters intra-tumourally
Protocol: Twenty-one dogs have been treated with P28R, 4 in the toxicological study (CiToxLab®, Denmark) with 200 nM administered in 1 mL subcutaneously and 17 dogs in the treatment study reported here with 40 nM in 200 microliters intra-tumourally.

[2] = Toxicological study and observation of side effects in dogs; format: in vivo, dog; settings: 200 nM in 1 mL subcutaneously and 40 nM in 200 microliters intra-tumourally
Protocol: So far nine dogs have been treated with P28R in accordance with some embodiments herein, 4 in the toxicological study (CiToxLab, Denmark) with 200 nM administered in 1 mL subcutaneously and 5 dogs in the treatment study reported here with 40 nM in 200 microliters intra tumourally.
More than 20 dogs have been treated with P28R, including 4 in the toxicological study (CiToxLab®, Denmark) with 200 nM administered in 1 mL subcutaneously and 17 dogs in the treatment study reported here with 40 nM in 200 microliters intra-tumourally.

[3] = test system: spontaneous canine tumours; experiment: Intra-tumoral treatment of spontaneous tumours in dogs; format: in vivo; settings: single dog
Protocol: Seventeen spontaneous canine tumours, of variable histology have been treated by intra-tumoral injection of 40 nmol P28R in 200 microliters. The tumours were resected 3-5 days later, immediately snap frozen and stored at −80° C. until further processed. A detailed description of treatment of the tumors is provided below (see Examples 50-60). In these examples, 15 control dogs with untreated tumours (5 snap frozen and 10 FFPE) were also examined.
A summary is provided for 7 dogs with treated mammary tumours and 5 untreated control dogs (see FIG. 88). Tumour cells (881 for treated dogs, 882 for untreated control dogs) and lymphocytes (883 for both treated dogs and untreated control dogs) were counted at 400× magnification. The ratio between these cells was used as a measure on the inflammatory infiltrate (FIG. 88). The reproducibility and the influence of tumour heterogeneity on cell counts were evaluated by counting several areas from each tumour section.
The therapeutic efficacy was evaluated as the presence of an inflammatory infiltrate and the occurrence of tumour cell regressive changes. As migration of effector cells close to tumour cells is one important, but often inhibited function of these cells, the effect of P28R was specifically evaluated as the presence of inflammatory cells infiltrating into the tumour cell areas close to the tumour cells. […]

## CC(C)C[C@H](NC(=O)[C@H](CO)NC(=O)[C@H](CC(C)C)NC(=O)[C@H](CCCCN)NC(=O)[C@@H](NC(=O)[C@H](Cc1ccccc1)NC(=O)[C@H](Cc1ccccc1)NC(=O)[C@@H](NC(=O)[C@H](CC(=O)O)NC(=O)[C@H](CC(C)C)NC(=O)[C@H](CCCCN)NC(=O)[C@@H](N)CCCCN)[C@@H](C)O)C(C)C)C(=O)N[C@@H](Cc1ccccc1)C(=O)N[C@H](C(=O)N[C@@H](CCC(=O)O)C(=O)N[C@@H](CCCNC(=N)N)C(=O)O)[C@@H](C)O [P28R] (H-KKLDTFFVKLSLFTER-OH; N-terminus and C-terminus assumed)
[1]
  systemic side effects: None of these dogs showed any systemic side effects
[2]
  systemic side effects: None of these dogs showed any systemic side effects
[3]
  clinical observations after injection until resection: No systemic adverse events were observed
